Values of other authors, collected in US20070237728A1, “Method and Composition for Dental Bleaching” (HIGH TECH LASER, priority 2000, published 2007).
Where two headings read alike, the source gives them in different places.

System: teeth

## CN(C)[C@@H]1C(=O)C(C(N)=O)=C(O)[C@@]2(O)C(=O)C3=C(O)c4c(O)cccc4[C@@](C)(O)[C@H]3[C@H](O)[C@@H]12 [oxytetracyclin]
In vivo
  type of teeth discolouration caused: yellow discolouration

## CN(C)[C@@H]1C(O)=C(C(N)=O)C(=O)[C@@]2(O)C(O)=C3C(=O)c4c(O)ccc(Cl)c4[C@@H](O)[C@H]3C[C@@H]12 [dimethylchlorotetracyclin]
Tetracycline staining of teeth
  type of teeth discolouration caused: yellow discolouration

## CN(C)[C@@H]1C(O)=C(C(N)=O)C(=O)[C@@]2(O)C(O)=C3C(=O)c4c(O)cccc4[C@@](C)(O)[C@H]3C[C@@H]12 [tetracycline]
Tetracycline staining of teeth
  type of teeth discolouration caused: yellow discolouration
